Source: paper PMC7339578, “Multiple circulating alkaloids and saponins from intravenous Kang-Ai injection inhibit human cytochrome P450 and UDP-glucuronosyltransferase isozymes: potential drug–drug interactions” (Chinese Medicine, 2020)
Where “and” joins values, the source holds several entries; their conditions need not be identical. Identical values can stand only once. Each block holds one molecule with its values, some of them ahead of it.

How the values were obtained:
Assay type in all cases: in vivo, Sprague–Dawley rats
[1] = Urinary (renal) excretion in rats after a 30-min infusion of Kang-Ai injection
Experimental: (§1) For urine sampling, the rats were housed singly in metabolic cages. And then, the urine samples were collected at 0–4, 4–8 and 8–12 h after starting infusion and were weighed. Likewise, bile samples were also collected at 0–3, 3–6, 6–9 and 9–12 h after starting infusion and were weighed. The urine and bile collection tubes were all frozen at − 80 °C.
(§2) Pharmacokinetic parameters were estimated by non-compartmental analysis using WinNonlin 6.3 software (Pharsight, NC, US). Data are presented as the mean ± SD (n = 3). The area under the concentration–time curve up to the last measured point in time (AUC0-t) was calculated using the trapezoidal rule. The total plasma clearance (CLtot, p) was calculated by dividing the compound dose by the AUC0-∞, and the distribution volume at steady state (VSS) was estimated by multiplying the CLtot, p by the mean residence time (MRT). The renal excretory clearance (CLR) and hepatobiliary (CLB) was determined by dividing the cumulative amount excreted into urine (Cum.Ae-U) and bile (Cum.Ae-B) by the plasma AUC0-∞, respectively. The fractions of dose excreted into urine (fe-U) and the fractions of dose excreted into bile (fe-B) were established using the relationship Cum.Ae-U/Dose and Cum.Ae-B/Dose, respectively. Mean differences between treatment and control groups were analyzed by two-tailed unpaired Student’s t test by Graphpad Prism V5 software (SanDiego, CA). The level of significance was set at p < 0.05 (∗), p < 0.01 (∗∗) or p < 0.001 (∗∗∗).

[2] = Biliary (hepatobiliary) excretion in rats after a 30-min infusion of Kang-Ai injection
Experimental: as §1, §2

[3] = Plasma pharmacokinetics in rats after a 30-min intravenous infusion of Kang-Ai injection; details: rat, in vivo, iv
Experimental: Specific pathogen free (SPF) grade male Sprague–Dawley rats (250 ± 20) g were provided by the Experimental Animal Center of Zhengzhou University (Zhengzhou, China). These rats were kept in a designated animal room at constant temperature (22 ± 2) °C and humidity (50 ± 20) % with 12 h of light/dark per day and free access to water and food. All protocols of animal experiments were approved in accordance with the Regulations of Experimental Animal Administration issued by the Ethics Review Committee for Animal Experimentation of Jinan University (Ethical Review NO. 20190301010). Prior to the experiments, the rats were fasted for 12 h but with free access to water. After study use, the rats were euthanized with CO2 gas.
The rats in this study all received a single 30-min intravenous infusion of Kang-Ai injection via the tail veins using TYD01-02 infusion pumps (Lead Fluid, Baoding, China). The dose was derived from the label daily dose of Kang-Ai injection (60 mL/person, once daily) according to dose normalization by body surface area. For plasma pharmacokinetic studies, the rats were randomly received a single intravenous 30 min-bolus dose at 6 mL/kg. Blood samples (100 μL) were collected from the rats’ external jugular veins into heparinized polypropylene tubes at 5, 15, 30, 45 min, and 1, 1.5, 2, 3, 4, 6, 8, 12 h. After gently shaking for 10 s, the blood samples were centrifuged at 13000 g for 10 min to yield plasma samples, which were kept frozen at − 80 °C until analysis.
as §2

[4] = male, Sprague-Dawley, rat, in vivo, iv
[5] = rat bile 0–12 h, Kang-Ai injection 6 mL/kg iv
[6] = rat urine 0–12 h, Kang-Ai injection 6 mL/kg iv

Molecule: CC(C)=CCC[C@](C)(O[C@@H]1O[C@H](CO[C@@H]2OC[C@H](O)[C@H](O)[C@H]2O)[C@@H](O)[C@H](O)[C@H]1O)[C@H]1CC[C@]2(C)[C@@H]1[C@H](O)C[C@@H]1[C@@]3(C)CC[C@H](O)C(C)(C)[C@@H]3[C@@H](O)C[C@]12C [Compound C4, Ginsenoside F3]
fe-U,0–12h (fraction of dose excreted into urine) [1, 4]: 24.46 ± 3.37%
fe-B,0–12h (fraction of dose excreted into bile) [2, 4]: 67.93 ± 8.80%

fe-U,0–12h (fraction of dose excreted into urine) ([1]; rat, in vivo, iv): 36.16 ± 7.04%
Molecule: CC(C)=CCC[C@](C)(O[C@@H]1O[C@H](CO[C@@H]2O[C@H](CO)[C@@H](O)[C@H](O)[C@H]2O)[C@@H](O)[C@H](O)[C@H]1O)[C@H]1CC[C@]2(C)[C@@H]1[C@H](O)C[C@@H]1[C@@]3(C)CC[C@H](O)C(C)(C)[C@@H]3[C@@H](O[C@@H]3O[C@H](CO)[C@@H](O)[C@H](O)[C@H]3O)C[C@]12C [Compound C12, Notoginsenoside R3]

Molecule: CC(C)=CCC[C@](C)(O[C@@H]1O[C@H](CO)[C@@H](O)[C@H](O)[C@H]1O)[C@H]1CC[C@]2(C)[C@@H]1[C@H](O)C[C@@H]1[C@@]3(C)CC[C@H](O[C@@H]4O[C@H](CO)[C@@H](O)[C@H](O)[C@H]4O)C(C)(C)[C@@H]3CC[C@]12C [Compound D1, Ginsenoside F2]
fe-B,0–12h (fraction of dose excreted into bile) [2, 5]: 7.46% and 7.46 ± 2.11%

fe-U,0–12h (fraction of dose excreted into urine) ([1]; rat, in vivo, iv): 42.80 ± 14.69%
fe-B,0–12h (fraction of dose excreted into bile) ([2]; rat, in vivo, iv): 11.14 ± 1.05%
Molecule: 9α-hydroxysophoramine [Compound A4]

fe-U,0–12h (fraction of dose excreted into urine) ([1]; rat, in vivo, iv): 51.36 ± 7.44%
Molecule: CC(C)(O[C@@H]1O[C@H](CO)[C@@H](O)[C@H](O)[C@H]1O)[C@@H]1CC[C@](C)([C@H]2[C@@H](O)C[C@@]3(C)[C@@H]4C[C@H](O)[C@H]5C(C)(C)[C@@H](O[C@@H]6OC[C@@H](O)[C@H](O)[C@H]6O[C@@H]6O[C@H](CO)[C@@H](O)[C@H](O)[C@H]6O)CC[C@@]56C[C@@]46CC[C@]23C)O1 [Compound B5, Astragaloside V]

Molecule: O=c1cccc([C@@H]2C[C@H](CO)[C@H]3CCCCN3C2)[nH]1 [Compound A8, Mamanine]
CLtot, p [3]: 7.93 ± 1.77 mL/h
Cmax [3]: 421 ± 68.1 nM
VSS [3]: 16.89 ± 5.16 mL
t1/2 [3]: 2.32 ± 1.03 h
CLR (renal excretory clearance) ([1]; rat, in vivo, iv): 1.23 ± 0.50 mL/h
fe-U,0–12h (fraction of dose excreted into urine) ([1]; rat, in vivo, iv): 15.28 ± 5.11%
CLB (hepatobiliary clearance) ([2]; rat, in vivo, iv): 2.67 ± 0.46 mL/h
fe-B,0–12h (fraction of dose excreted into bile) ([2]; rat, in vivo, iv): 34.12 ± 4.23%

fe-U,0–12h (fraction of dose excreted into urine) ([1]; rat, in vivo, iv): 48.30 ± 10.27%
Molecule: CC(C)=CCC[C@](C)(O[C@@H]1O[C@H](CO[C@@H]2O[C@@H](CO)[C@H](O)[C@H]2O)[C@@H](O)[C@H](O)[C@H]1O)[C@H]1CC[C@]2(C)[C@@H]1[C@H](O)C[C@@H]1[C@@]3(C)CC[C@H](O)C(C)(C)[C@@H]3[C@@H](O[C@@H]3O[C@H](CO)[C@@H](O)[C@H](O)[C@H]3O)C[C@]12C [Compound C11, Ginsenoside Re4]

CLtot, p [3]: 20.03 ± 4.84 mL/h
Cmax [3]: 202 ± 19.1 nM
MRT [3]: 7.94 h
VSS [3]: 150.70 ± 19.02 mL
t1/2 [3]: 5.73 ± 1.74 h
CLR (renal excretory clearance) ([1]; rat, in vivo, iv): 12.32 ± 4.14 mL/h
fe-U,0–12h (fraction of dose excreted into urine) ([1]; rat, in vivo, iv): 61.05 ± 10.61%
CLB (hepatobiliary clearance) ([2]; rat, in vivo, iv): 1.42 ± 0.17 mL/h
fe-B,0–12h (fraction of dose excreted into bile) ([2]; rat, in vivo, iv): 7.30 ± 1.41%
Molecule: O=C1CCCC2=C3CCC[N+]4([O-])CCC[C@@H](CN12)[C@@H]34 (stereo partly drawn) [Compound A7, Leontalbinine N-oxide]

Molecule: C=C(CCC=C(C)C)[C@H]1CC[C@]2(C)[C@@H]1[C@H](O)C[C@@H]1[C@@]3(C)CC[C@H](O)C(C)(C)[C@@H]3[C@@H](O[C@@H]3O[C@H](CO)[C@@H](O)[C@H](O)[C@H]3O[C@@H]3O[C@@H](C)[C@H](O)[C@@H](O)[C@H]3O)C[C@]12C [Compound E3, Ginsenoside Rg6]
fe-B,0–12h (fraction of dose excreted into bile) ([2]; rat, in vivo, iv): 31.31 ± 6.25%

Molecule: CC(C)=CCC[C@](C)(O[C@@H]1O[C@H](CO)[C@@H](O)[C@H](O)[C@H]1O)[C@H]1CC[C@]2(C)[C@@H]1[C@H](O)C[C@@H]1[C@@]3(C)CC[C@H](O)C(C)(C)[C@@H]3[C@@H](O[C@@H]3O[C@H](CO)[C@@H](O)[C@H](O)[C@H]3O[C@@H]3O[C@H](CO)[C@@H](O)[C@H](O)[C@H]3O)C[C@]12C [Compound C13, 20-Gluco-Ginsenoside Rf]
fe-U,0–12h (fraction of dose excreted into urine) ([1]; rat, in vivo, iv): 38.72 ± 6.57%

fe-B,0–12h (fraction of dose excreted into bile) ([2]; rat, in vivo, iv): 30.40 ± 3.79%
Molecule: CC(C)(O[C@@H]1O[C@H](CO)[C@@H](O)[C@H](O)[C@H]1O)[C@@H]1CC[C@](C)([C@H]2[C@@H](O)C[C@@]3(C)[C@@H]4C[C@H](O)[C@H]5C(C)(C)[C@@H](O[C@@H]6OC[C@@H](O)[C@H](O)[C@H]6O)CC[C@@]56C[C@@]46CC[C@]23C)O1 [Compound B1, Isoastragaloside IV]

CLtot, p [3]: 56.05 ± 22.70 mL/h
Cmax [3]: 397 ± 49.7 nM
VSS [3]: 53.50 ± 7.71 mL
t1/2 [3]: 0.82 ± 0.37 h
CLR (renal excretory clearance) ([1]; rat, in vivo, iv): 34.24 ± 17.17 mL/h
fe-U,0–12h (fraction of dose excreted into urine) ([1]; rat, in vivo, iv): 59.77 ± 8.80%
CLB (hepatobiliary clearance) ([2]; rat, in vivo, iv): 0.68 ± 0.16 mL/h
fe-B,0–12h (fraction of dose excreted into bile) ([2]; rat, in vivo, iv): 1.27 ± 0.20%
Molecule: O=C1CCC[C@@H]2[C@H]3CCCN4CCC[C@@](O)(CN12)[C@@H]34 [Compound A9, Sophoranol]

CLtot, p [3]: 47.70 ± 10.72 mL/h
Cmax [3]: 344 ± 40.7 nM
VSS [3]: 93.63 ± 24.86 mL
t1/2 [3]: 2.16 ± 1.28 h
CLR (renal excretory clearance) ([1]; rat, in vivo, iv): 6.23 ± 2.97 mL/h
fe-U,0–12h (fraction of dose excreted into urine) ([1]; rat, in vivo, iv): 12.92 ± 4.98%
CLB (hepatobiliary clearance) ([2]; rat, in vivo, iv): 5.86 ± 1.10 mL/h
fe-B,0–12h (fraction of dose excreted into bile) ([2]; rat, in vivo, iv): 12.50 ± 1.32%
Molecule: O=C1C=CC[C@@H]2[C@H]3C[C@H](O)CN4CCC[C@@H](CN12)[C@@H]34 [Compound A6, 9α-hydroxysophocarpine]

Molecule: CC(C)=CCC[C@](C)(O[C@@H]1O[C@H](CO)[C@@H](O)[C@H](O)[C@H]1O)[C@H]1CC[C@]2(C)[C@@H]1[C@H](O)C[C@@H]1[C@@]3(C)CC[C@H](O)C(C)(C)[C@@H]3[C@@H](O[C@@H]3O[C@H](CO)[C@@H](O)[C@H](O)[C@H]3O[C@@H]3OC[C@@H](O)[C@H](O)[C@H]3O)C[C@]12C [Compound C10, Ginsenoside R1]
fe-U,0–12h (fraction of dose excreted into urine) [1, 6]: 40.28 ± 5.48%

Molecule: CC(C)=CC/C=C(\C)[C@H]1CC[C@]2(C)[C@@H]1[C@H](O)C[C@@H]1[C@@]3(C)CC[C@H](O)C(C)(C)[C@@H]3[C@@H](O[C@@H]3O[C@H](CO)[C@@H](O)[C@H](O)[C@H]3O)C[C@]12C [Compound E2, Ginsenoside Rh4]
fe-B,0–12h (fraction of dose excreted into bile) [2, 5]: 46.95 ± 6.46%

Molecule: CC(C)=CCC[C@](C)(O[C@@H]1O[C@H](CO)[C@@H](O)[C@H](O)[C@H]1O)[C@H]1CC[C@]2(C)[C@@H]1[C@H](O)C[C@@H]1[C@@]3(C)CC[C@H](O)C(C)(C)[C@@H]3[C@@H](O)C[C@]12C [Compound C2, Ginsenoside F1]
fe-U,0–12h (fraction of dose excreted into urine) [1, 6]: 23.37 ± 7.94%
fe-B,0–12h (fraction of dose excreted into bile) [2, 5]: 24.20 ± 4.93%

Molecule: CC(C)(O)[C@@H]1CC[C@](C)([C@H]2[C@@H](O)C[C@@]3(C)[C@@H]4C[C@H](O[C@@H]5O[C@H](CO)[C@@H](O)[C@H](O)[C@H]5O)[C@H]5C(C)(C)[C@@H](O[C@@H]6OC[C@@H](O)[C@H](O)[C@H]6O[C@@H]6O[C@H](CO)[C@@H](O)[C@H](O)[C@H]6O)CC[C@@]56C[C@@]46CC[C@]23C)O1 [Compound B4, Astragaloside VI]
fe-U,0–12h (fraction of dose excreted into urine) [1, 6]: 63.43 ± 11.75%

Molecule: C=C(CCC=C(C)C)[C@H]1CC[C@]2(C)[C@@H]1[C@H](O)C[C@@H]1[C@@]3(C)CC[C@H](O)C(C)(C)[C@@H]3[C@@H](O[C@@H]3O[C@H](CO)[C@@H](O)[C@H](O)[C@H]3O)C[C@]12C [Compound E1, Ginsenoside Rk3]
fe-B,0–12h (fraction of dose excreted into bile) ([2]; rat, in vivo, iv): 27.80 ± 7.01%

fe-B,0–12h (fraction of dose excreted into bile) ([2]; rat, in vivo, iv): 29.36 ± 3.14%
Molecule: CC(C)=CC/C=C(/C)[C@H]1CC[C@]2(C)[C@@H]1[C@H](O)C[C@@H]1[C@@]3(C)CC[C@H](O)C(C)(C)[C@@H]3[C@@H](O[C@@H]3O[C@H](CO)[C@@H](O)[C@H](O)[C@H]3O[C@@H]3O[C@@H](C)[C@H](O)[C@@H](O)[C@H]3O)C[C@]12C [Compound E4, Ginsenoside F4]
